Test results as given in ChEMBL document CHEMBL3638693, “Pyrazole compound and pharmaceutical use thereof” (2014).
pIC50: −log10 of the molar value.

Target: T1, Sodium/glucose cotransporter 1 (Homo sapiens, UniProt P13866)
T1 sequence (P13866 whole entry): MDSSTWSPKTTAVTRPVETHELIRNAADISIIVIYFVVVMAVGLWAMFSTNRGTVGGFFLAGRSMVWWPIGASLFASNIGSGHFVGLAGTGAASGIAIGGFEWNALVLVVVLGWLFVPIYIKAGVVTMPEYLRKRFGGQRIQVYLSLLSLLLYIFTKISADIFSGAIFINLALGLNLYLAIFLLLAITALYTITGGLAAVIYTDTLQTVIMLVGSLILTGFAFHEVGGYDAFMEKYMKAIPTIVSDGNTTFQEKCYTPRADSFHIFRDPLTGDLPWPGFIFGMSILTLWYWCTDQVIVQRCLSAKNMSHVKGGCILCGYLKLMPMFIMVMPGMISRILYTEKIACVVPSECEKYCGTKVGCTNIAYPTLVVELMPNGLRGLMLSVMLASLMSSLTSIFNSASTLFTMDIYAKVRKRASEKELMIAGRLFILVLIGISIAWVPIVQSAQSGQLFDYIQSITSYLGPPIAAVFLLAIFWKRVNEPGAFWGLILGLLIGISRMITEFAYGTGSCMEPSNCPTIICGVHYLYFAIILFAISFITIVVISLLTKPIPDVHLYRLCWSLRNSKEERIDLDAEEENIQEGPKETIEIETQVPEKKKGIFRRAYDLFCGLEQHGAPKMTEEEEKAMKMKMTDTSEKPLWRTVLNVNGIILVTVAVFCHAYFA
Test: Inhibition Assay: The stable cell line expressing human SGLT1 was seeded at 5x10^4 cells/well on BioCoat Poly-D-Lysine 96 well plate with Lid (Becton Dickinson and Company) and cultured at 37 C. under 5% CO2 overnight. The medium was replaced with 100 uL/well of a Na (+) buffer (140 mM choline chloride, 2 mM KCl, 1 mM MgCl2, 1 mM CaCl2, 10 mM HEPES, 5 mM Tris, pH7.4) followed by incubation for 20 minutes at 37 C. under 5% CO2. After removing the Na (+) buffer, a test compound solution which was prepared from Na (+) buffer (140 mM NaCl, 2 mM KCl, 1 mM MgCl2, 1 mM CaCl2, 10 mM HEPES, 5 mM Tris, pH7.4) containing BSA was added thereto at 40 uL/well. In addition, Na (+) buffer containing 8 kBq of 14C-AMG and 2 mM AMG was added thereto at 40 uL/well, and was mixed well. Na (+) buffer containing BSA was added to a blank well at 40 uL/well and additionally adding a Na (+) buffer containing 8 kBq of 14C-AMG and 2 mM AMG, and was mixed well.

O=C1C[C@H](C(=O)Nc2cc(-c3cccc(COCC(F)(F)F)c3)n(-c3ccc(F)cc3)n2)CN1
pIC50: 7.66
